Results on 17 molecules are retold here after patent US20240190880A1 (THE REGENTS OF THE UNIVERSITY OF MICHIGAN, priority 2021, published 2024).

Where only a bound is given, the exact number is not on record here.

For the first assay, the target named is T1, ER (Homo sapiens, UniProt P03372).
T1 construct: host or cells: T47D and MCF7 human breast cancer cells
T1 sequence (P03372 1-595): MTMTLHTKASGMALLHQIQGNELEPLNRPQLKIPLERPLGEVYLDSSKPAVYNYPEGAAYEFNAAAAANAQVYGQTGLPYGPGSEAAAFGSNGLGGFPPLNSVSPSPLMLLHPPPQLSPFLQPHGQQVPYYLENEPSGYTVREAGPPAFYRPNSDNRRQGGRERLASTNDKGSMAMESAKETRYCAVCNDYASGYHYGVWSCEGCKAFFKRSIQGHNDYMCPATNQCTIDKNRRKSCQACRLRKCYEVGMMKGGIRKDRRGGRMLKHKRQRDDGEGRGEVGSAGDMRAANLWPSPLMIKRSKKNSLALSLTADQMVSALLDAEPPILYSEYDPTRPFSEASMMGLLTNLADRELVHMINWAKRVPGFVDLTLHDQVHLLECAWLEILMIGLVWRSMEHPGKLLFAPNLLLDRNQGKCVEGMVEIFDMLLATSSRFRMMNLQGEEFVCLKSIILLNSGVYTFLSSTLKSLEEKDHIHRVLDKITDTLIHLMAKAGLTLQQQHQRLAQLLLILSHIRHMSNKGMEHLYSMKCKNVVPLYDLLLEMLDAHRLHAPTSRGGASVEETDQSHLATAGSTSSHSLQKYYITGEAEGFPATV
In words: ER degradation activity, in-cell western blot analysis in T47D cells. It counts as cell-based. Conditions: 16 hours, Table A does not say which cell line (T47D or MCF7), read-out: Potency (DC50). The procedure, abridged:
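Human T47D cells (DMEM, 10% FBS) are dosed for 16 h with 0.5% DMSO final and probed with 680- and 800-dye secondary antibodies. Relative ER is calculated against vehicle and untreated wells.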
Take `O=C1CCC(N2C(=O)c3cc4c(cc3C2=O)CN(CC2CCN(C(=O)C3CN(c5ccc([C@@H]6c7ccc(O)cc7CC[C@@H]6c6ccccc6)cc5)C3)CC2)C4)C(=O)N1` (stereo partly drawn) [E 201, 2-(2,6-dioxopiperidin-3-yl)-6-((1-(1-(4-((1R,2S)-6-hydroxy-2-phenyl-1,2,3,4-tetrahydronaphthalen-1-yl)phenyl)azetidine-3-carbonyl)piperidin-4-yl)methyl)-6,7-dihydropyrrolo[3,4-f]isoindole-1,3(2H,5H)-dione]: the 50% degradation concentration (DC50) was > 100 nM.
As to `C[C@@H]1Cc2cc(O)ccc2[C@@H](c2c(F)cc(N3CCN(C(=O)[C@H]4CC[C@@H](N5Cc6cc7c(cc6C5)C(=O)N(C5CCC(=O)NC5=O)C7=O)CC4)CC3)cc2F)N1CC(F)F` (mixture of isomers) [E 352, Rac-6-((1R,4s)-4-(4-(4-((1S,3R)-2-(2,2-difluoroethyl)-6-hydroxy-3-methyl-1,2,3,4-tetrahydroisoquinolin-1-yl)-3,5-difluorophenyl)piperazine-1-carbonyl)cyclohexyl)-2-(2,6-dioxopiperidin-3-yl)-6,7-dihydropyrrolo[3,4-f]isoindole-1,3(2H,5H)-dione], the half-maximal degradation concentration (DC50) is > 100 nM.
Turning to `C[C@@H]1Cc2c([nH]c3ccccc23)[C@@H](c2c(F)cc(N3CC4(CCCN(C(=O)CN5Cc6cc7c(cc6C5)C(=O)N(C5CCC(=O)NC5=O)C7)C4)C3)cc2F)N1CC(F)F` (some centres unmarked) [E 69], the DC50 was > 100 nM.
On to `O=C1CCC(N2C(=O)c3cc4c(cc3C2=O)CN([C@H]2CC[C@@H](NC3CCN(c5ccc([C@@H]6c7ccc(O)cc7CC[C@@H]6c6ccccc6)cc5)CC3)CC2)C4)C(=O)N1` (stereo partly drawn) [E334, 2-(2,6-dioxopiperidin-3-yl)-6-((1S,4s)-4-((1-(4-((1R,2S)-6-hydroxy-2-phenyl-1,2,3,4-tetrahydronaphthalen-1-yl)phenyl)piperidin-4-yl)amino)cyclohexyl)-6,7-dihydropyrrolo[3,4-f]isoindole-1,3(2H,5H)-dione], for which the 50% degradation concentration (DC50) was > 100 nM.
Still for that read-out and setting: next, `C[C@@H]1Cc2c([nH]c3ccccc23)[C@@H](c2c(F)cc(N3CC(CC(=O)N4CC(N5Cc6cc7c(cc6C5)C(=O)N(C5CCC(=O)NC5=O)C7)C4)C3)cc2F)N1CC(F)F` (stereo partly drawn) [E 134, 3-(6-(1-(2-(1-(4-((1R,3R)-2-(2,2-difluoroethyl)-3-methyl-2,3,4,9-tetrahydro-1H-pyrido[3,4-b]indol-1-yl)-3,5-difluorophenyl)azetidin-3-yl)acetyl)azetidin-3-yl)-1-oxo-3,5,6,7-tetrahydropyrrolo[3,4-f]isoindol-2(1H)-yl)piperidine-2,6-dione]: 10 to 100 nM; `C[C@@H]1Cc2c([nH]c3ccccc23)[C@@H](c2c(F)cc(N3CC4(CN(CC(=O)N5Cc6cc7c(cc6C5)C(=O)N(C5CCC(=O)NC5=O)C7)C4)C3)cc2F)N1CC(F)F` (stereo partly drawn) [E 65, 3-(6-(2-(6-(4-((1R,3R)-2-(2,2-difluoroethyl)-3-methyl-2,3,4,9-tetrahydro-1H-pyrido[3,4-b]indol-1-yl)-3,5-difluorophenyl)-2,6-diazaspiro[3.3]heptan-2-yl)acetyl)-1-oxo-3,5,6,7-tetrahydropyrrolo[3,4-f]isoindol-2(1H)-yl)piperidine-2,6-dione]: < 10 nM.
`C[C@@H]1Cc2c([nH]c3ccccc23)[C@@H](c2c(F)cc(N3CCC(CN4CCC5(CC4)CC(N4Cc6cc7c(cc6C4)C(=O)N(C4CCC(=O)NC4=O)C7=O)C5)CC3)cc2F)N1CC(F)F` (stereo partly drawn) [E 132, 6-(7-((1-(4-((1R,3R)-2-(2,2-difluoroethyl)-3-methyl-2,3,4,9-tetrahydro-1H-pyrido[3,4-b]indol-1-yl)-3,5-difluorophenyl)piperidin-4-yl)methyl)-7-azaspiro[3.5]nonan-2-yl)-2-(2,6-dioxopiperidin-3-yl)-6,7-dihydropyrrolo[3,4-f]isoindole-1,3(2H,5H)-dione]: the DC50 lay within 10 to 100 nM.
In the case of `O=C1CCC(N2C(=O)c3cc4c(cc3C2=O)CN(C2CCC3(CC2)CCN(c2ccc([C@@H]5c6ccc(O)cc6CC[C@@H]5c5ccccc5)cc2)CC3)C4)C(=O)N1` (stereo partly drawn) [E 160, 2-(2,6-dioxopiperidin-3-yl)-6-(3-(4-((1R,2S)-6-hydroxy-2-phenyl-1,2,3,4-tetrahydronaphthalen-1-yl)phenyl)-3-azaspiro[5.5]undecan-9-yl)-6,7-dihydropyrrolo[3,4-f]isoindole-1,3(2H,5H)-dione], the 50% degradation concentration (DC50) is > 100 nM.
`C[C@@H]1Cc2c([nH]c3ccccc23)[C@@H](c2c(F)cc(C(=O)N3CCC4(CC3)CC(CN3Cc5cc6c(cc5C3)C(=O)N(C3CCC(=O)NC3=O)C6=O)C4)cc2F)N1CC(F)F` (stereo partly drawn) [E 369, 6-((7-(4-((1R,3R)-2-(2,2-difluoroethyl)-3-methyl-2,3,4,9-tetrahydro-1H-pyrido[3,4-b]indol-1-yl)-3,5-difluorobenzoyl)-7-azaspiro[3.5]nonan-2-yl)methyl)-2-(2,6-dioxopiperidin-3-yl)-6,7-dihydropyrrolo[3,4-f]isoindole-1,3(2H,5H)-dione]: the 50% degradation concentration (DC50) was > 100 nM.
The same measure, in the same setting: next, `O=C1CCC(N2Cc3cc4c(cc3C2=O)CN(C2CCN(CC3CN(c5ccc([C@@H]6c7ccc(O)cc7CC[C@@H]6c6ccccc6)cc5)C3)CC2)C4)C(=O)N1` (stereo partly drawn) [E 294, 3-(6-(1-((1-(4-((1R,2S)-6-hydroxy-2-phenyl-1,2,3,4-tetrahydronaphthalen-1-yl)phenyl)azetidin-3-yl)methyl)piperidin-4-yl)-1-oxo-3,5,6,7-tetrahydropyrrolo[3,4-f]isoindol-2(1H)-yl)piperidine-2,6-dione]: > 100 nM.
`O=C1CCC(N2C(=O)c3cc4c(cc3C2=O)CN(CC2CN(C(=O)C3CN(c5ccc([C@@H]6c7ccc(O)cc7CC[C@@H]6c6ccccc6)cc5)C3)C2)C4)C(=O)N1` (mixture of isomers) [E 158, Rac-2-(2,6-dioxopiperidin-3-yl)-6-((1-(1-(4-((1R,2S)-6-hydroxy-2-phenyl-1,2,3,4-tetrahydronaphthalen-1-yl)phenyl)azetidine-3-carbonyl)azetidin-3-yl)methyl)-6,7-dihydropyrrolo[3,4-f]isoindole-1,3(2H,5H)-dione]: the 50% degradation concentration (DC50) is > 100 nM.
`O=C1CCC(N2C(=O)c3cc4c(cc3C2=O)CN(Cc2ccc(N3CCN(c5ccc([C@@H]6c7ccc(O)cc7CC[C@@H]6c6ccccc6)cc5)CC3)nc2)C4)C(=O)N1` (stereo partly drawn) [E 311, 2-(2,6-dioxopiperidin-3-yl)-6-((6-(4-(4-((1R,2S)-6-hydroxy-2-phenyl-1,2,3,4-tetrahydronaphthalen-1-yl)phenyl)piperazin-1-yl)pyridin-3-yl)methyl)-6,7-dihydropyrrolo[3,4-f]isoindole-1,3(2H,5H)-dione]: the 50% degradation concentration (DC50) was > 100 nM.
Turning to `C[C@@H]1Cc2c([nH]c3ccccc23)[C@@H](c2c(F)cc(N3CCC4(CC3)CN(C(=O)CN3Cc5cc6c(cc5C3)C(=O)N(C3CCC(=O)NC3=O)C6=O)C4)cc2F)N1CC(F)(F)F` (stereo partly drawn) [E 227, 6-(2-(7-(3,5-difluoro-4-((1R,3R)-3-methyl-2-(2,2,2-trifluoroethyl)-2,3,4,9-tetrahydro-1H-pyrido[3,4-b]indol-1-yl)phenyl)-2,7-diazaspiro[3.5]nonan-2-yl)-2-oxoethyl)-2-(2,6-dioxopiperidin-3-yl)-6,7-dihydropyrrolo[3,4-f]isoindole-1,3(2H,5H)-dione], the 50% degradation concentration (DC50) was in the range of 10 to 100 nM.

Still in this assay, the particulars now being: compounds 16 hours, Table A does not say whether T47D or MCF7, read-out: Potency (DC50).
Turning to `O=C1CCC(N2Cc3cc4c(cc3C2=O)CN(C(=O)[C@H]2CC[C@H](CN3CC(Oc5ccc([C@@H]6c7ccc(O)cc7CC[C@@H]6c6ccccc6)cc5)C3)CC2)C4)C(=O)N1` (mixture of isomers) [E 491], the half-maximal degradation concentration (DC50) fell in the range of 10 to 100 nM.
On to `C[C@@H]1Cc2cc(O)ccc2[C@@H](c2ccc(N3CCC4(CCN(C(=O)CN5Cc6cc7c(cc6C5)C(=O)N(C5CCC(=O)NC5=O)C7=O)CC4)CC3)cc2)N1c1ccc(F)cc1` (stereo partly drawn) [E 462, 2-(2,6-dioxopiperidin-3-yl)-6-(2-(9-(4-((1R,3R)-2-(4-fluorophenyl)-6-hydroxy-3-methyl-1,2,3,4-tetrahydroisoquinolin-1-yl)phenyl)-3,9-diazaspiro[5.5]undecan-3-yl)-2-oxoethyl)-6,7-dihydropyrrolo[3,4-f]isoindole-1,3(2H,5H)-dione], for which the DC50 lay within 10 to 100 nM.
As to `O=C1CCC(N2C(=O)c3cc4c(cc3C2=O)CC2(C4)CN(C(=O)CN3CC(Oc4ccc([C@@H]5c6ccc(O)cc6CC[C@@H]5c5ccccc5)cc4)C3)C2)C(=O)N1` (stereo partly drawn) [E 502, 2′-(2,6-dioxopiperidin-3-yl)-1-(2-(3-(4-((1R,2S)-6-hydroxy-2-phenyl-1,2,3,4-tetrahydronaphthalen-1-yl)phenoxy)azetidin-1-yl)acetyl)-5′,7′-dihydro-1′H-spiro[azetidine-3,6′-cyclopenta[f]isoindole]-1′,3′(2′H)-dione], the half-maximal degradation concentration (DC50) is > 100 nM.
Regarding `C[C@@H]1Cc2cc(O)ccc2[C@@H](c2c(F)cc(N3CCC(C(=O)N4CCC(N5Cc6cc7c(cc6C5)C(=O)N(C5CCC(=O)NC5=O)C7=O)CC4)CC3)cc2F)N1CC(F)F` (stereo partly drawn) [E 463, 6-(1-(1-(4-((1S,3R)-2-(2,2-difluoroethyl)-6-hydroxy-3-methyl-1,2,3,4-tetrahydroisoquinolin-1-yl)-3,5-difluorophenyl)piperidine-4-carbonyl)piperidin-4-yl)-2-(2,6-dioxopiperidin-3-yl)-6,7-dihydropyrrolo[3,4-f]isoindole-1,3(2H,5H)-dione], the DC50 is < 10 nM.

The DC50 is the midpoint of the concentration-degradation curve.
